{"source": "patent US5120641A", "about": "(Daiichi Pure Chemicals Co., Ltd., priority 1989, dated 1992)", "key": {"[1]": {"molecular_target": "T1, serotonin uptake sites ([^3 H]6-nitroquipazine binding, rat brain membranes) (Rattus norvegicus, UniProt P31652)", "T1 construct": "from tissue; host or cells: rat brain minus cerebellum, pons and medulla oblongata; washed membrane homogenate", "T1 sequence (P31652 whole entry)": "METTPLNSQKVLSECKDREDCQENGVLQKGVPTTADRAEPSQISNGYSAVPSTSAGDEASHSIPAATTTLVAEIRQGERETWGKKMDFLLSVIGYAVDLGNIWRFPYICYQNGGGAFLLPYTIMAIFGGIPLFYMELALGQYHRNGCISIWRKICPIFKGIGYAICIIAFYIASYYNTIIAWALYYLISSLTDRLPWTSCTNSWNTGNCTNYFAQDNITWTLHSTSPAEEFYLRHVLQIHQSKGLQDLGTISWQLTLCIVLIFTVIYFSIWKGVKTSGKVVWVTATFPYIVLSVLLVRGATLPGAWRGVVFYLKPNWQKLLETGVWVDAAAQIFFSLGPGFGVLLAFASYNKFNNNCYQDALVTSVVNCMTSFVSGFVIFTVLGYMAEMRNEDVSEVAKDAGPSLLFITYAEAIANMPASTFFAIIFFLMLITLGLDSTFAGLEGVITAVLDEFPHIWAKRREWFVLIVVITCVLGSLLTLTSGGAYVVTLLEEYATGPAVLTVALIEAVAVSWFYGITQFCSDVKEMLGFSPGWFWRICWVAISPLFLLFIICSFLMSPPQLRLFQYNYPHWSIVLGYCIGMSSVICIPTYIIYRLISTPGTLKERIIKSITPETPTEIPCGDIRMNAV", "assay": "Inhibition of [^3 H]6-nitroquipazine binding by several drugs", "experimental": "(§1) Rats were killed by decapitation and the brains (minus cerebellum, pons medulla and oblongata) were rapidly removed. The brain tissue was homogenized in 50 volumes of ice-cold buffer (50 mM Tris-HCl, 120 mM NaCl, 5 mM KCl, pH 7.4) with a Kinematica Polytron homogenizer at setting 5 for 30 seconds. The homogenate was centrifuged at 48,000×g for 10 minutes. The resulting pellet was resuspended in 50 volumes of ice-cold buffer and recentrifuged. The final pellet was resuspended in the same 50 volumes of buffer.\n(§2) Aliquots of membrane suspension were incubated with [^3 H]6-nitroquipazine (30-1,200 pM) at 22° C. for 2 hours for the equilibrium saturation. After the addition of 4 ml of ice-cold buffer the homogenates were rapidly filtered through Whatman GF/C filters pretreated with 0.05% polyethleneimine. The filters were washed with ice-cold buffer (3×5 ml). The radioactivity trapped by the filters was determined by a liquid scintillation counter.\nTen different concentrations of the drugs were used for each determination. Aliquots of membrane suspension were incubated with [^3 H]6-nitroquipazine at 22° C. for 2 hours. The specific binding of [^3 H]6-nitroquipazine was determined as described in Example 2.\nDrug IC50 values were defined by means of the iterative non-linear least-squares method."}, "[2]": {"molecular_target": "T2, serotonin uptake sites (rat cerebral cortical membranes) (Rattus norvegicus, UniProt P31652)", "T2 construct": "The cerebral cortex of rat brain was rapidly dissected; from tissue; host or cells: rat cerebral cortex membranes (p-chloroamphetamine-treated rats)", "T2 sequence (P31652 whole entry)": "as above", "assay": "[^3 H]6-nitroquipazine binding to cerebral cortical membranes after serotonin neuronal lesions with p-chloroamphetamine", "conditions": "for Bmax / Kd: cerebral cortex, mean ± S.E.M.", "experimental": "as §2\n(§3) Rats were injected i.p. three times (24 hours interval) with p-chloroamphetamine (2.5 mg/kg), and were decapitated 7 days after final injection. The cerebral cortex of rat brain was rapidly dissected, and [^3 H]6-nitroquipazine binding to cerebral cortical membranes was examined as described previously."}, "[3]": {"molecular_target": "serotonin uptake sites (rat brain regions) (Rattus norvegicus, UniProt P31652)", "sequence (P31652 whole entry)": "as above", "assay": "Regional distribution of [^3 H]6-nitroquipazine binding in rat brain", "experimental": "as §2\nRats were killed by decapitation and the brains were dissected (cerebral cortex, striatum, hippocampus, hypothalamus, midbrain, cerebellum, pons medulla and oblongata) on ice. [^3 H]6-Nitroquipazine binding was estimated as described previously."}, "[4]": {"molecular_target": "T3, serotonin uptake sites (rat brain membranes) (Rattus norvegicus, UniProt P31652)", "T3 construct": "from tissue; host or cells: rat brain minus cerebellum, pons and medulla oblongata; washed membrane homogenate", "T3 sequence (P31652 whole entry)": "as above", "assay": "[^3 H]6-Nitroquipazine saturation binding to rat brain membranes (Scatchard analysis)", "experimental": "as §1, §2"}, "rat cerebral cortex": {"test_system": "rat cerebral cortex", "assay": "Serotonin and 5-hydroxyindoleacetic acid content in cerebral cortex of p-chloroamphetamine lesioned rats", "assay_type": "in vivo", "experimental": "as §3"}, "[5]": {"conditions": "[…] [^3 H]6-nitroquipazine, 22° C., 2 hours"}}, "note": "“Also recorded” adds a separate entry of the source. Read-outs that look alike come from different tables or passages of the source."}
{"smiles": "O=[N+]([O-])c1ccc2nc(N3CCNCC3)ccc2c1", "note": "[6-Nitroquipazine, 6-nitro-2-piperazinylquinoline]", "values": [{"measurement": "Ki", "setting": "[1]; [5]", "result": "low nanomolar ranges"}, {"measurement": "Ki", "setting": "[1]; read-out: Ki", "result": 0.128, "unit": "nM"}]}
{"smiles": "c1ccc2c(CCC3CCNCC3)c[nH]c2c1", "note": "[Indalpine]", "values": [{"measurement": "Ki", "setting": "[1]; [5]", "result": "low nanomolar ranges"}, {"measurement": "Ki", "setting": "[1]; read-out: Ki", "result": 1.93, "unit": "nM"}]}
{"smiles": "O=[N+]([O-])c1ccc2nc(N3CCNCC3)ccc2c1", "note": "[[^3 H]6-nitroquipazine, Tritium-labeled 6-nitro-2-piperazinylquinoline]", "values": [{"measurement": "Bmax", "setting": "[2]; control rats", "result": "616.0 ± 64.4", "unit": "fmole/mg protein"}, {"measurement": "Kd", "setting": "[2]; control rats", "result": 0.141, "unit": "nM"}, {"measurement": "Bmax", "setting": "[2]; rats treated with p-chloroamphetamine (2.5 mg/kg i.p. x3), ***P < 0.001 vs control", "result": "170.5 ± 44.8", "unit": "fmole/mg protein"}, {"measurement": "Kd", "setting": "[2]; rats treated with p-chloroamphetamine (2.5 mg/kg i.p. x3), *P < 0.01 vs control", "result": "0.108 ± 0.01", "unit": "nM"}, {"measurement": "Bmax", "setting": "[3]; Cerebellum", "result": "91.2 ± 4.0", "unit": "fmole/mg protein"}, {"measurement": "Bmax", "setting": "[3]; Cortex", "result": "565.6 ± 28.3", "unit": "fmole/mg protein"}, {"measurement": "Bmax", "setting": "[3]; Hippocampus", "result": "612.2 ± 35.4", "unit": "fmole/mg protein"}, {"measurement": "Bmax", "setting": "[3]; Hypothalamus", "result": "1211.8 ± 33.2", "unit": "fmole/mg protein"}, {"measurement": "Bmax", "setting": "[3]; Medulla oblongata", "result": "598.2 ± 25.6", "unit": "fmole/mg protein"}, {"measurement": "Bmax", "setting": "[3]; Midbrain", "result": "1107.8 ± 30.2", "unit": "fmole/mg protein"}, {"measurement": "Bmax", "setting": "[3]; Striatum", "result": "807.4 ± 41.5", "unit": "fmole/mg protein"}, {"measurement": "specific binding by brain region", "setting": "[3]; rat brain regions", "result": "highest in the hypothalamus and midbrain; also recorded: moderately high in the striatum, hippocampus, medulla oblongata and cerebral cortex; also recorded: lowest in the cerebellum"}, {"measurement": "binding to rat brain membranes", "setting": "[4]; FIG. 1", "result": "bound with high affinity to rat brain membranes in a saturable and reversible fashion"}, {"measurement": "specific binding as share of total binding", "setting": "[4]; at equilibrium, 110 pM [^3 H]6-nitroquipazine, non-specific: 1 μM paroxetine", "result": 95, "unit": "%"}, {"measurement": "potency compared with [^3 H]imipramine and [^3 H]paroxetine", "setting": "[4]; no comparative data given", "result": "more potent than [^3 H]imipramine and [^3 H]paroxetine"}, {"measurement": "Kd", "setting": "[4]; rat brain membranes, 22° C., 2 hours, 30-1,200 pM radioligand, Scatchard analysis, read-out: apparent equilibrium dissociation constant (Kd)", "result": 0.093, "unit": "nM"}, {"measurement": "maximal number of binding sites (Bmax)", "setting": "[4]; rat brain membranes, 22° C., 2 hours, Scatchard analysis", "result": 832, "unit": "fmol/mg protein"}]}
{"smiles": "CC(N)Cc1ccc(Cl)cc1", "note": "(centres unmarked) [p-chloroamphetamine]", "values": [{"measurement": "decrease of [^3 H]6-nitroquipazine binding to cortical membranes of lesioned rats compared to controls", "setting": "[2]; p-chloroamphetamine 2.5 mg/kg i.p. three times, 7 days after final injection", "result": 72, "unit": "%"}, {"measurement": "Kd change in lesioned rats", "setting": "[2]; p-chloroamphetamine 2.5 mg/kg i.p. three times, compared to controls", "result": "slightly decreased"}, {"measurement": "endogenous serotonin levels and [^3 H]6-nitroquipazine binding", "setting": "rat cerebral cortex; destruction of serotonin neuron terminals by p-chloroamphetamine", "result": "decreases in endogenous serotonin levels and [^3 H]6-nitroquipazine binding"}, {"measurement": "content of 5-hydroxyindoleacetic acid in the cerebral cortex", "setting": "rat cerebral cortex; lesioned rats, p-chloroamphetamine 2.5 mg/kg i.p. three times, control 0.2123±0.038", "result": "0.0541±0.008", "unit": "ng/mg tissue"}, {"measurement": "content of serotonin in the cerebral cortex", "setting": "rat cerebral cortex; lesioned rats, p-chloroamphetamine 2.5 mg/kg i.p. three times, control 0.3362±0.037", "result": "0.129±0.037", "unit": "ng/mg tissue"}]}
